In BindingDB's records for PubMed 20126400 (University of Oklahoma, 2010):

What was measured:
Experiment in all cases: Ray2010 Assay 74
[1] = target: T1, 5-hydroxytryptamine receptor 3A (Homo sapiens, UniProt P46098)
T1 sequence (P46098 whole entry): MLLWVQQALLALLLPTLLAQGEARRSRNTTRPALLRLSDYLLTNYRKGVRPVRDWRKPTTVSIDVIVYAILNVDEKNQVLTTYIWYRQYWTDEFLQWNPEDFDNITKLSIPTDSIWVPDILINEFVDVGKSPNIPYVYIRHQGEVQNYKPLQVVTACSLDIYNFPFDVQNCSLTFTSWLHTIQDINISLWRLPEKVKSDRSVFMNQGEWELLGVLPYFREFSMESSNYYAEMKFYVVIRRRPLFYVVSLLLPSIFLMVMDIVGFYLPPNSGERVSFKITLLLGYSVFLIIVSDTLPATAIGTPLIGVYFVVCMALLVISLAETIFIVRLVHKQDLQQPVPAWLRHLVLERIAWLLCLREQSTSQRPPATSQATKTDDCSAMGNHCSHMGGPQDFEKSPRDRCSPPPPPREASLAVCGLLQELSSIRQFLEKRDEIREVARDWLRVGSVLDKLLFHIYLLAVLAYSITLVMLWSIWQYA
Text: (§1) Table S2 shows raw Ki data for the current study combined with data collected from the literature for the ten additional compounds.

[2] = target: Kappa-type opioid receptor (Homo sapiens, UniProt P41145)
Kappa-type opioid receptor, sequence (P41145 whole entry): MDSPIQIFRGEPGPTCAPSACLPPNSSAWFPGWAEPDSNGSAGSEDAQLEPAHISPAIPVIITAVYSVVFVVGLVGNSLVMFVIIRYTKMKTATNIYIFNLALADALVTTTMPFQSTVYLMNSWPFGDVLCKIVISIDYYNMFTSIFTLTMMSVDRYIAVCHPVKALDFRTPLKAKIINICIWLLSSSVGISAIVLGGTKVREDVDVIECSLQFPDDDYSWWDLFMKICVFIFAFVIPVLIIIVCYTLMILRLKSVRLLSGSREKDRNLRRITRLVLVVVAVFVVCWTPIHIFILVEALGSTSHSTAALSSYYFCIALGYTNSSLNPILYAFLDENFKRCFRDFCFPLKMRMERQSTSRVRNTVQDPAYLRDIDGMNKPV
Text: as §1

[3] = target: Delta-type opioid receptor (Homo sapiens, UniProt P41143)
Delta-type opioid receptor, sequence (P41143 whole entry): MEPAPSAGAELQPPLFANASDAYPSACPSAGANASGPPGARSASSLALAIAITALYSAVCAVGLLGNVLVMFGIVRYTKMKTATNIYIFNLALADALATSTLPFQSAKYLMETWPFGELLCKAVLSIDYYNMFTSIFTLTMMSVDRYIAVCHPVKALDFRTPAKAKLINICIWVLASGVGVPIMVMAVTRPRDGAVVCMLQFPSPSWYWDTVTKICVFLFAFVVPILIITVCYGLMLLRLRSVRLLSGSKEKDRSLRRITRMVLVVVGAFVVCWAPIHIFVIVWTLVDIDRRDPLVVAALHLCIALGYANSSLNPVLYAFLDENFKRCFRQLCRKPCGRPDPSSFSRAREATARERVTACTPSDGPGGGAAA
Text: as §1

[4] = target: T2, Gamma-aminobutyric acid receptor subunit alpha-1 (Homo sapiens, UniProt P14867)
T2 sequence (P14867 whole entry): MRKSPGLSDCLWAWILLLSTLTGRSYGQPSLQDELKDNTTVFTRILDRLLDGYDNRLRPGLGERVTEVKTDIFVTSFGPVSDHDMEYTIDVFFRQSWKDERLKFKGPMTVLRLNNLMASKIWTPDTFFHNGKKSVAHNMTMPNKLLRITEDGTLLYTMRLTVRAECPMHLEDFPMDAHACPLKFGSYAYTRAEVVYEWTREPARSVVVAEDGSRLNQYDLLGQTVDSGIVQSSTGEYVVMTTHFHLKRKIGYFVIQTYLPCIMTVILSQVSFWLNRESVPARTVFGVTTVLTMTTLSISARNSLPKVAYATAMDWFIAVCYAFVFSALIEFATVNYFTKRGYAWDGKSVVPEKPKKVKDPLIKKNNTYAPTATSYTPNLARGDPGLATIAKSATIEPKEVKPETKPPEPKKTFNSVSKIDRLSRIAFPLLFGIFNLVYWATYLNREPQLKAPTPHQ
Text: as §1

[5] = target: 5-hydroxytryptamine receptor 1E (Homo sapiens, UniProt P28566)
5-hydroxytryptamine receptor 1E, sequence (P28566 whole entry): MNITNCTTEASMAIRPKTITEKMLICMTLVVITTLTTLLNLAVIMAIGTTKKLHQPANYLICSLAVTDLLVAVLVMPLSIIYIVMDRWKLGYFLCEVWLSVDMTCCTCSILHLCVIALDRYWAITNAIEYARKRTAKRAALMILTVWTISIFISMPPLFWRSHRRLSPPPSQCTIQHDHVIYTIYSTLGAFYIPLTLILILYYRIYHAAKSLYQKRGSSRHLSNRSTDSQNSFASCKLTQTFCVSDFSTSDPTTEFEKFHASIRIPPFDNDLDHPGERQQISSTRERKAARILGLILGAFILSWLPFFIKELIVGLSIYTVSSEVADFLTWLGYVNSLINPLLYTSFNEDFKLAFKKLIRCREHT
Text: as §1

[6] = target: 5-hydroxytryptamine receptor 1B (Homo sapiens, UniProt P28222)
5-hydroxytryptamine receptor 1B, sequence (P28222 whole entry): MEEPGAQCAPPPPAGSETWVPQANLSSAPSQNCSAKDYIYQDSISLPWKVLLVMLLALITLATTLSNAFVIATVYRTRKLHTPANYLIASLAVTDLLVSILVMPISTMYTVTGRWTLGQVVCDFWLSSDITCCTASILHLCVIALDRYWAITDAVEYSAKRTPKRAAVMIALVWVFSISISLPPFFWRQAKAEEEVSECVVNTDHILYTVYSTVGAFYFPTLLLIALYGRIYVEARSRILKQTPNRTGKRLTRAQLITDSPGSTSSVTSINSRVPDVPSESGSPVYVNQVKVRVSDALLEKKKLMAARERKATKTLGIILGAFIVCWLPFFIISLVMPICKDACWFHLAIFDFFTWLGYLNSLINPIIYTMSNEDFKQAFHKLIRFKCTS
Text: as §1

D(4) dopamine receptor = target: T3, D(4) dopamine receptor (Homo sapiens, UniProt P21917)
T3 sequence (P21917 whole entry): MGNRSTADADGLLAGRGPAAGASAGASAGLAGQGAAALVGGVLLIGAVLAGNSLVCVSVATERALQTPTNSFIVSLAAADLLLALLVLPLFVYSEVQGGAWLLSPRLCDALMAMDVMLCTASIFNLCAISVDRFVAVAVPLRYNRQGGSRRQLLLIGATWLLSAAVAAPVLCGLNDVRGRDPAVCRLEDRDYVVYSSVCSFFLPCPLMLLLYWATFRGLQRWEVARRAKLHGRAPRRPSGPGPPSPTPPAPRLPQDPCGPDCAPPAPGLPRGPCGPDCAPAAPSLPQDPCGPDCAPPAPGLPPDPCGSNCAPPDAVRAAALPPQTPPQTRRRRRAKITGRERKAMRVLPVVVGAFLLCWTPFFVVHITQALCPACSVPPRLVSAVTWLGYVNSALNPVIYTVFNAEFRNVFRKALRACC
Text: as §1

[7] = target: T4, Alpha-2A adrenergic receptor (Homo sapiens, UniProt P08913)
T4 sequence (P08913 whole entry): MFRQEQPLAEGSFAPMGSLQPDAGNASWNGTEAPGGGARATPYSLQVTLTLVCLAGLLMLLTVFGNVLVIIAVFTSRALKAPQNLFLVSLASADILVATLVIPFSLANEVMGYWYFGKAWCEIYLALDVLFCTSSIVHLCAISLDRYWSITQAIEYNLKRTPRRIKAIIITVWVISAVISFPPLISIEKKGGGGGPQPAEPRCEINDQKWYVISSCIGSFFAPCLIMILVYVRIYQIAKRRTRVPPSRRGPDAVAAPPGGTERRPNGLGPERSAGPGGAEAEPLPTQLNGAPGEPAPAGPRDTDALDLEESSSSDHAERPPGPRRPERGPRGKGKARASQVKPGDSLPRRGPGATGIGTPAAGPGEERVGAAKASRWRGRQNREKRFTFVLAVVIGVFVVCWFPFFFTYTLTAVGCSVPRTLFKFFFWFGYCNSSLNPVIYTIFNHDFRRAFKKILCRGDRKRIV
Text: as §1

[8] = target: 5-hydroxytryptamine receptor 6 (Homo sapiens, UniProt P50406)
Text: as §1

[9] = target: Sodium-dependent noradrenaline transporter (Homo sapiens, UniProt P23975)
Sodium-dependent noradrenaline transporter, sequence (P23975 whole entry): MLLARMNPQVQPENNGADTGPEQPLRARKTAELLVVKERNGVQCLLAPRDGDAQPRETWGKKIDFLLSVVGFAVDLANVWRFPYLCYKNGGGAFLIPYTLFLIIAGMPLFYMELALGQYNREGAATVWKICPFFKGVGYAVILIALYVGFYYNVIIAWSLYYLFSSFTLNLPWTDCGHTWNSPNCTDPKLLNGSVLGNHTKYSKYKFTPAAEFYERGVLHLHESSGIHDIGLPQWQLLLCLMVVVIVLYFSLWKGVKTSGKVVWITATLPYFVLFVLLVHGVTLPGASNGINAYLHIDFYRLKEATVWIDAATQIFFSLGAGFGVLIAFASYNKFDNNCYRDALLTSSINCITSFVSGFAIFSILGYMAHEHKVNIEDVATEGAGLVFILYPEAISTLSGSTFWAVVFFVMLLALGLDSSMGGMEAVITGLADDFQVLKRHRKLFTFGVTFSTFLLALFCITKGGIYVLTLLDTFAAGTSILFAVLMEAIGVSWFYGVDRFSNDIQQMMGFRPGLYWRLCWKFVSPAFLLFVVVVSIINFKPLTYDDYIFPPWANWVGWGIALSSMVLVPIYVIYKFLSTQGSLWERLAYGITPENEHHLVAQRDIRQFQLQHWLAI
Text: as §1

[10] = target: Glutamate receptor ionotropic, NMDA 2A (Homo sapiens, UniProt Q12879)
Glutamate receptor ionotropic, NMDA 2A, sequence (Q12879 whole entry): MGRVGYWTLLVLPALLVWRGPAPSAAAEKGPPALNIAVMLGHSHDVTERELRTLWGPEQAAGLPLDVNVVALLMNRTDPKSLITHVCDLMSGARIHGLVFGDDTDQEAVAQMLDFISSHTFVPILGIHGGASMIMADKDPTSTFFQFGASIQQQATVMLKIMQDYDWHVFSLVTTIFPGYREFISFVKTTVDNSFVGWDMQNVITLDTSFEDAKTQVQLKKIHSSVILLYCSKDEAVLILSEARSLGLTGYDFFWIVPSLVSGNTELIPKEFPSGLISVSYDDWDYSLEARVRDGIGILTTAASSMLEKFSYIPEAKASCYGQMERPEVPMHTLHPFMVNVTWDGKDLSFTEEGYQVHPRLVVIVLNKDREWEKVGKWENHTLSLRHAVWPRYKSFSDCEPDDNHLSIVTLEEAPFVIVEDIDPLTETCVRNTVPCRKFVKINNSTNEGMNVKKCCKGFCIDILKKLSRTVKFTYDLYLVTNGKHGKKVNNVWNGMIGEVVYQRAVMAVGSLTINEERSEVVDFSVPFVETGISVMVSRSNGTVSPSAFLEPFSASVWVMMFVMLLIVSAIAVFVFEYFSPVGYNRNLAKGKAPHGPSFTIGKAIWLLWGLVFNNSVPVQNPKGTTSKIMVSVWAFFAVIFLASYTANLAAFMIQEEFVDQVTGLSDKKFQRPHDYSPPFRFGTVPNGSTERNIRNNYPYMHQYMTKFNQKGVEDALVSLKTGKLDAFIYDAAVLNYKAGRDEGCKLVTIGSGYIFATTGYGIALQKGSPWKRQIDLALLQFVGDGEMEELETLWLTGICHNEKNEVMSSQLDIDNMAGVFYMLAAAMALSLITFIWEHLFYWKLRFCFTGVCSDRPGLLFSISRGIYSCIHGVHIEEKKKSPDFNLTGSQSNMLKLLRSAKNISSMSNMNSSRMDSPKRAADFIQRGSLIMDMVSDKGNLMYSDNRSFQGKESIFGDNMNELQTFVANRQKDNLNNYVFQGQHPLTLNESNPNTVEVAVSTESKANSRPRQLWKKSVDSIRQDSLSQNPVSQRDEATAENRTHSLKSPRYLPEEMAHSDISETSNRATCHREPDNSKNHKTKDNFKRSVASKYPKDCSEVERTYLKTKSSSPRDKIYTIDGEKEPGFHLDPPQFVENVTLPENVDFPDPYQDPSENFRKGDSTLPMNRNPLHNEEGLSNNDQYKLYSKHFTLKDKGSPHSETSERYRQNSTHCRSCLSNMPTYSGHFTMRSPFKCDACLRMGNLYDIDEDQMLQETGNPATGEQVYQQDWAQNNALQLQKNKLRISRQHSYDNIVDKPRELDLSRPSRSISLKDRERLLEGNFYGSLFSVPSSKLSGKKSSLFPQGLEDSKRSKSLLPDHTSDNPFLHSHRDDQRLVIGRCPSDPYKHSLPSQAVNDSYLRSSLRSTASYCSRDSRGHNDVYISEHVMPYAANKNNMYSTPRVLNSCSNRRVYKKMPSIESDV
Text: as §1

[11] = target: Sodium-dependent serotonin transporter (Homo sapiens, UniProt P31645)
Sodium-dependent serotonin transporter, sequence (P31645 whole entry): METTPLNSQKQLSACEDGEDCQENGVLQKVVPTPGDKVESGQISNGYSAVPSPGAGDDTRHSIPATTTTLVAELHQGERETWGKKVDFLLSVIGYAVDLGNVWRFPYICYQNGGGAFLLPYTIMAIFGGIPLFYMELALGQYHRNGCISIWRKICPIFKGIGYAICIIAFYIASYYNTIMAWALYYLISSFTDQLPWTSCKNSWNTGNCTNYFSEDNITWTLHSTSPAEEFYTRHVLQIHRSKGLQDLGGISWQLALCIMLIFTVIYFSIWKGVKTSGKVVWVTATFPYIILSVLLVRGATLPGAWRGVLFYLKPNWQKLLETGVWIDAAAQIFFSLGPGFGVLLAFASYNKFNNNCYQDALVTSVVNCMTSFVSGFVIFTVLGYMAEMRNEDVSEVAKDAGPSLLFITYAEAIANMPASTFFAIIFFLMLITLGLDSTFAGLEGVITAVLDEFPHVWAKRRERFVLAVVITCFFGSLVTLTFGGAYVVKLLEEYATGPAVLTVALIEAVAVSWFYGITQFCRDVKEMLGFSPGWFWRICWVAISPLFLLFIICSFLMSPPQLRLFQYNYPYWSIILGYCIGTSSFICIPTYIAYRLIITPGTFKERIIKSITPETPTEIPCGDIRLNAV
Text: as §1

[12] = target: 5-hydroxytryptamine receptor 1D (Homo sapiens, UniProt P28221)
5-hydroxytryptamine receptor 1D, sequence (P28221 whole entry): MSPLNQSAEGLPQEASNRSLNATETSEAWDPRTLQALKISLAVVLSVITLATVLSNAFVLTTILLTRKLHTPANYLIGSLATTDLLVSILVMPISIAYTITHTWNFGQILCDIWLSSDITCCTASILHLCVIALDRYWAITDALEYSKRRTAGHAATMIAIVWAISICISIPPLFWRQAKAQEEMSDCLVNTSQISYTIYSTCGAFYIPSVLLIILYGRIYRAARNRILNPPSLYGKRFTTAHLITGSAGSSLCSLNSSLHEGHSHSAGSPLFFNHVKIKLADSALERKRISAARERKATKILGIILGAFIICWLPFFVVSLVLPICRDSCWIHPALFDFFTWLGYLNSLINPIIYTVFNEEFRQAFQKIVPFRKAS
Text: as §1

[13] = target: T5, Alpha-1A adrenergic receptor (Homo sapiens, UniProt P35348)
T5 sequence (P35348 whole entry): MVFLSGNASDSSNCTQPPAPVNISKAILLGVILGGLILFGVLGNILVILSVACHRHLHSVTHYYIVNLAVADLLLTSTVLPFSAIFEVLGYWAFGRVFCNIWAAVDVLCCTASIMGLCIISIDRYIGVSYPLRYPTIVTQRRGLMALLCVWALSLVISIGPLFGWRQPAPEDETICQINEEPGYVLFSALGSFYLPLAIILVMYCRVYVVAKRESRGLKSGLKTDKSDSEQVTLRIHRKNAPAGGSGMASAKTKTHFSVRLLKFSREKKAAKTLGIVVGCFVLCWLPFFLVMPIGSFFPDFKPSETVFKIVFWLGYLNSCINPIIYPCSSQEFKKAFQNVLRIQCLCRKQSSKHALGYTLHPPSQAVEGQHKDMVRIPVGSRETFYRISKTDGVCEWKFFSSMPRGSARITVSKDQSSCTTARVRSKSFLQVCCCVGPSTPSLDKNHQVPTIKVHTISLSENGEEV
Text: as §1

Histamine H2 receptor = Histamine H2 receptor (Homo sapiens, UniProt P25021)
Histamine H2 receptor, sequence (P25021 whole entry): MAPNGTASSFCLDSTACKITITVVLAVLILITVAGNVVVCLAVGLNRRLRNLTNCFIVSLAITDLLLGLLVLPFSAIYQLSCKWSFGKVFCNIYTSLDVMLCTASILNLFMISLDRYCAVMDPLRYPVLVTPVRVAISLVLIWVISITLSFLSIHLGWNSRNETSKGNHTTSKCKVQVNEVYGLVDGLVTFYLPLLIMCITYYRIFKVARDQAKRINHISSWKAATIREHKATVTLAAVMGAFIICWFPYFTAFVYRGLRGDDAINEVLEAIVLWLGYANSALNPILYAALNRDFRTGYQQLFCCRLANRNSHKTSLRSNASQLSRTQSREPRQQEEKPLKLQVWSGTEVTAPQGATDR
Text: as §1

SMILES | Ki [1] [µM] | Ki [2] [µM] | Ki [3] [µM] | Ki [4] [µM] | Ki [5] [µM] | Ki [6] [µM] | Ki (D(4) dopamine receptor) [µM] | Ki [7] [µM] | Ki [8] [µM] | Ki [9] [µM] | Ki [10] [µM] | Ki [11] [µM] | Ki [12] [µM] | Ki [13] [µM] | Ki (Histamine H2 receptor) [µM]
CCSc1cc(OC)c(CC(N)CC)cc1OC (stereo not given) [1-(4-Ethylsulfanyl-2,5-dimethoxy-benzyl)-propylamine] | > 10 | > 10 | > 10 | > 10 | 9.88 | > 10 | > 10 | > 10 | > 10 | > 10 | > 10 | > 10 | > 10 | > 10 | > 10
COc1cc(CC(C)N)c(OC)cc1Br (stereo not drawn) [2-(4-Bromo-2,5-dimethoxy-phenyl)-1-methyl-ethylamine((-)-DOB)] | > 10 | > 10 | > 10 | > 10 | 1.43 | 0.941 | > 10 | 4.27 | 5.53 | > 10 | > 10 | 8.54 | 0.635 | > 10 | > 10
COc1cc(CC(C)N)cc(OC)c1OC (stereo not given) | > 10 | > 10 | > 10 | > 10 | 3.37 | 2.86 | > 10 | 2.07 | > 10 | > 10 | > 10 | > 10 | 3.03 | > 10 | > 10
